Laboratory results: US20250019350A1, “SYNTHESIS OF THE PROSTATE SPECIFIC MEMBRANE ANTIGEN (PSMA) RADIOLABELED INHIBITOR [18F]DCFPYL” (Progenics Pharmaceuticals, Inc, priority 2023, published 2025)

Assay: Radiolysis / stability of [18F]DCFPyL over time by HPLC with radiodetection (RCP, free 18F, radioactive impurities)
Assay type: physicochemical
Experimental: Those of ordinary skill in the art will be aware of techniques and systems for determining the radiochemical purity of a composition. In some cases, the radiochemical purity is determined using an HPLC associated with a radio-detector. Generally, the radiochemical purity is determined under ambient conditions (e.g., ambient temperature, ambient humidity, ambient light, etc.), such as in samples stored under such conditions.
Stability was assessed using reverse phase HPLC on a C18 column with a phosphate buffer/acetonitrile gradient mobile phase, and the elution profile was monitored using both UV and radiochemical detectors. Samples were analyzed either by direct injection onto the HPLC, dilution and injection or including the addition of tetraethylammonium fluoride (TEAF) into the sample before injection.
Known amounts of free ^18F either alone or spiked with TEAF were injected onto the analytic column and the eluent from the column collected over the course of a chromatogram and assaying the radioactivity using a Capintec. […] Adding TEAF into the analytic samples was incorporated into subsequent studies examining potential radiolysis of [^18F]DCFPyL to overcome some of the limitations of free ^18F quantification.
Analytical HPLC method was used. The method employs UV detection at 264 nm for chemical impurities, and an Eckert & Ziegler model B-FC-1000 gamma detector for radiochemical assays.

[1] = T = 10, 50 mg/mL ascorbic acid pH 5.8, 20% ethanol, 106.5 mCi/mL at EOS
[2] = T = 0.5 hr, 50 mg/mL ascorbic acid pH 5.8 in final product vial, 20% ethanol, 110 mCi/mL at EOS
[3] = T = 0.5 hr, 100 mg/mL ascorbic acid pH 2.0, 256 mCi/mL at EOS
[4] = T = 0.5 hr, 20% ethanol in saline, 52 mCi/mL at EOS
[5] = T = 0.5 hr, 20% ethanol in saline, 65 mCi/mL at EOS
[6] = T = 0.5 hr, 20% ethanol in saline, 85 mCi/mL at EOS
[7] = T = 0.5 hr, control without ascorbic acid, 36% ethanol in saline, 147 mCi/mL at EOS
[8] = T = 1.0 hr, 50 mg/mL ascorbic acid pH 5.8 in final product vial, 20% ethanol, 110 mCi/mL at EOS
[9] = T = 1.0 hr, 100 mg/mL ascorbic acid pH 2.0, 256 mCi/mL at EOS
[10] = T = 1 hr, 20% ethanol in saline, 52 mCi/mL at EOS
[11] = T = 1 hr, 20% ethanol in saline, 65 mCi/mL at EOS
[12] = T = 1 hr, 20% ethanol in saline, 85 mCi/mL at EOS
[13] = T = 1 hr, 100% ethanol, 325 mCi/mL at EOS
[14] = T = 1 hr, control without ascorbic acid, 36% ethanol in saline, 147 mCi/mL at EOS
[15] = T = 1.5 hr (Table 3 prints 1.6 hr), control without ascorbic acid, 36% ethanol in saline, 147 mCi/mL at EOS
[16] = T = 1.5 hr, 50 mg/mL ascorbic acid pH 5.8 in final product vial, 20% ethanol, 110 mCi/mL at EOS
[17] = T = 1.5 hr, 100 mg/mL ascorbic acid pH 2.0, 256 mCi/mL at EOS
[18] = T = 1.5 hr, 20% ethanol in saline, 52 mCi/mL at EOS
[19] = T = 1.5 hr, 20% ethanol in saline, 65 mCi/mL at EOS
[20] = T = 1.5 hr, 20% ethanol in saline, 85 mCi/mL at EOS
[21] = T = 2 hr, 0.5 mg/mL ascorbic acid pH 5.8, 20% ethanol, 105.8 mCi/mL at EOS
[22] = T = 2 hr, 1 mg/mL ascorbic acid pH 5.8, 20% ethanol, 107.0 mCi/mL at EOS
[23] = T = 2 hr, 5 mg/mL ascorbic acid pH 5.8, 20% ethanol, 99.0 mCi/mL at EOS
[24] = T = 2 hr, 20 mg/mL sodium citrate, 20% ethanol, 104.8 mCi/mL at EOS
[25] = T = 2 hr, 50 mg/mL ascorbic acid pH 5.8, 20% ethanol, 139.7 mCi/mL at EOS
[26] = T = 2.0 hr, 50 mg/mL ascorbic acid pH 5.8 in final product vial, 20% ethanol, 110 mCi/mL at EOS
[27] = T = 2.0 hr, 100 mg/mL ascorbic acid pH 2.0, 256 mCi/mL at EOS
[28] = T = 2 hr, 20% ethanol in saline, 52 mCi/mL at EOS
[29] = T = 2 hr, 20% ethanol in saline, 65 mCi/mL at EOS
[30] = T = 2 hr, 20% ethanol in saline, 85 mCi/mL at EOS
[31] = T = 2 hr, 100% ethanol, 325 mCi/mL at EOS
[32] = T = 2 hr, control without ascorbic acid, 36% ethanol in saline, 147 mCi/mL at EOS
[33] = T = 2.5 hr, 50 mg/mL ascorbic acid pH 5.8 in final product vial, 20% ethanol, 110 mCi/mL at EOS

O=C(O)CC[C@H](NC(=O)N[C@@H](CCCCNC(=O)c1ccc([18F])nc1)C(=O)O)C(=O)O [Lot 18F-DCFPyL, 2-(3-{1-carboxy-5-[(6-[18F]fluoro-pyridine-3-carbonyl)-amino]-pentyl}ureido)-pentanedioic acid]
18F-DCFPyL (% RCP) [1]: 99.43% | Free F-18 [1]: 0.57% | 18F-DCFPyL (RCP) [2]: 99.69% | RT 5.0 radioactive impurity [2]: 0.31% | 18F-DCFPyL (RCP) [3]: 99.60% | Free 18F [3]: 0.40% | 18F-DCFPyL (RCP) [4]: 99.18% | Free F-18 [4]: 0.36% | RT 5.0 radioactive impurity [4]: 0.47% | 18F-DCFPyL (RCP) [5]: 96.43% | Free F-18 [5]: 3.17% | RT 5.0 radioactive impurity [5]: 0.39% | 18F-DCFPyL (RCP) [6]: 96.74% | Free F-18 [6]: 2.92% | RT 5.0 radioactive impurity [6]: 0.34% | 18F-DCFPyL (RCP) [7]: 90.65% | Free F-18 [7]: 7.73% | RT 5.0 radioactive impurity [7]: 0.65% | RT 5.9 radioactive impurity [7]: 0.97% | 18F-DCFPyL (RCP) [8]: 96.73% | RT 5.0 radioactive impurity [8]: 0.27% | 18F-DCFPyL (RCP) [9]: 98.68% | Free 18F [9]: 0.31% | RT 5.0 radioactive impurity [9]: 0.35% | RT 12.0 radioactive impurity [9]: 0.35% | RT 12.2 radioactive impurity [9]: 0.31% | 18F-DCFPyL (RCP) [10]: 98.93% | Free F-18 [10]: 0.56% | RT 5.0 radioactive impurity [10]: 0.51% | 18F-DCFPyL (RCP) [11]: 96.15% | Free F-18 [11]: 3.22% | RT 5.0 radioactive impurity [11]: 0.36% | RT 5.9 radioactive impurity [11]: 0.28% | 18F-DCFPyL (RCP) [12]: 96.64% | Free F-18 [12]: 2.98% | RT 5.0 radioactive impurity [12]: 0.38% | 18F-DCFPyL (RCP) [13]: 96.66% | Free F-18 [13]: 3.34% | 18F-DCFPyL (RCP) [14]: 90.71% | Free F-18 [14]: 7.69% | RT 5.0 radioactive impurity [14]: 0.48% | RT 5.9 radioactive impurity [14]: 1.11% | 18F-DCFPyL (RCP) [15]: 89.59% | Free F-18 [15]: 8.78% | RT 5.0 radioactive impurity [15]: 0.61% | RT 5.9 radioactive impurity [15]: 1.03% | 18F-DCFPyL (RCP) [16]: 99.61% | RT 5.0 radioactive impurity [16]: 0.39% | RT 5.9 radioactive impurity [16]: 0.31% | 18F-DCFPyL (RCP) [17]: 98.58% | Free 18F [17]: 0.31% | RT 5.0 radioactive impurity [17]: 0.28% | RT 12.0 radioactive impurity [17]: 0.46% | RT 12.2 radioactive impurity [17]: 0.37% | 18F-DCFPyL (RCP) [18]: 98.70% | Free F-18 [18]: 0.80% | RT 5.0 radioactive impurity [18]: 0.50% | 18F-DCFPyL (RCP) [19]: 95.78% | Free F-18 [19]: 3.55% | RT 5.0 radioactive impurity [19]: 0.38% | RT 5.9 radioactive impurity [19]: 0.29% | 18F-DCFPyL (RCP) [20]: 95.06% | Free F-18 [20]: 4.22% | RT 5.0 radioactive impurity [20]: 0.41% | RT 5.9 radioactive impurity [20]: 0.31% | 18F-DCFPyL (% RCP) [21]: 98.99% | Free F-18 [21]: 1.01% | 18F-DCFPyL (% RCP) [22]: 98.88% | Free F-18 [22]: 1.12% | Free F-18 (T = 2 hr, 1 mg/mL sodium ascorbate, 20% ethanol, 111.5 mCi/mL at EOS): 1.89% | 18F-DCFPyL (% RCP) [23]: 99.45% | Free F-18 [23]: 0.55% | Free F-18 (T = 2 hr, 5 mg/mL sodium ascorbate, 20% ethanol, 114.6 mCi/mL at EOS): 0.89% | Free F-18 [24]: 18.24% | RT 3.4 radioactive impurity [24]: 0.30% | RT 3.7 radioactive impurity [24]: 0.31% | 18F-DCFPyL (% RCP) [25]: 100.00% | Free F-18 [25]: 0.00% | RT 4.8 radioactive impurity (T = 2 hr, 50 mg/mL ascorbic acid pH 5.8, 20% ethanol, 139.7 mCi/mL at EOS, MPA = 0.25% of main peak): <MPA | 18F-DCFPyL (RCP) [26]: 99.67% | RT 5.0 radioactive impurity [26]: 0.33% | RT 5.9 radioactive impurity [26]: 0.24% | 18F-DCFPyL (RCP) [27]: 98.35% | Free 18F [27]: 0.31% | RT 5.0 radioactive impurity [27]: 0.35% | RT 12.0 radioactive impurity [27]: 0.52% | RT 12.2 radioactive impurity [27]: 0.47% | 18F-DCFPyL (RCP) [28]: 98.62% | Free F-18 [28]: 0.91% | RT 5.0 radioactive impurity [28]: 0.47% | 18F-DCFPyL (RCP) [29]: 95.91% | Free F-18 [29]: 3.78% | RT 5.0 radioactive impurity [29]: 0.31% | 18F-DCFPyL (RCP) [30]: 95.37% | Free F-18 [30]: 4.00% | RT 5.0 radioactive impurity [30]: 0.39% | RT 5.9 radioactive impurity [30]: 0.24% | 18F-DCFPyL (RCP) [31]: 96.38% | Free F-18 [31]: 3.62% | 18F-DCFPyL (RCP) [32]: 89.50% | Free F-18 [32]: 8.67% | RT 5.0 radioactive impurity [32]: 0.77% | RT 5.9 radioactive impurity [32]: 1.05% | 18F-DCFPyL (RCP) [33]: 99.63% | RT 5.0 radioactive impurity [33]: 0.37% | RT 5.9 radioactive impurity [33]: 0.35%
